# Assays:
# Assay type in all cases: in vivo
# kochia (Bassia scoparia) [1] = assay: Test A postemergence application, visual injury rating 0-100; settings: 10 days
# Outline: (§1)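 Rating: visual, day 10, untreated plants as reference, 0 no effect to 100 full control. Plants were in loam-sand and were treated either preemergence via directed soil spray or postemergence at the one- to two-leaf stage.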
# [2] = system: ryegrass, Italian (italian ryegrass, Lolium multiflorum); assay: as above; settings: 10 days
# Outline: as §1
# [3] = system: galium (catchweed bedstraw, Galium aparine); assay: as above; settings: 10 days
# Outline: as §1
# [4] = system: horseweed (Erigeron canadensis); assay: as above; settings: 10 days
# Outline: as §1
# [5] = system: ragweed (common ragweed, Ambrosia artemisiifolia); assay: as above; settings: 10 days
# Outline: as §1
# [6] = system: wheat (Triticum aestivum); assay: as above; settings: 10 days
# Outline: as §1
# [7] = system: palmer (palmer amaranth, palmer pigweed, Amaranthus palmeri); assay: as above; settings: 10 days
# Outline: as §1
# [8] = system: blackgrass (Alopecurus myosuroides); assay: as above; settings: 10 days
# Outline: as §1
# soybean (Glycine max) [9] = assay: as above; settings: 10 days
# Outline: as §1
# [10] = system: barnyardgrass (Echinochloa crus-galli); assay: as above; settings: 10 days
# Outline: as §1
# [11] = system: green foxtail (Setaria viridis); assay: as above; settings: 10 days
# Outline: as §1
# corn (Zea mays) [12] = assay: as above; settings: 10 days
# Outline: as §1
# [13] = system: oat, wild (wild oat, Avena fatua); assay: as above; settings: 10 days
# Outline: as §1
# rice (Oryza sativa) = assay: Test B flooded paddy test, visual plant response rating 0-100; settings: 250 g ai/ha, Flood, applied to paddy water, evaluated after 13 days
# Outline: (§2)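 2-leaf plants; flood 3 cm over soil; compound dosed into paddy water; depth kept constant; greenhouse 13 d; visual scoring vs controls. Dash = no result.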
# [14] = system: barnyardgrass (Echinochloa crusgalli); assay: as above; settings: 250 g ai/ha, Flood, applied to paddy water, evaluated after 13 days
# Outline: as §2
# [15] = system: ducksalad (Heteranthera limosa); assay: as above; settings: 250 g ai/ha, Flood, applied to paddy water, evaluated after 13 days
# Outline: as §2
# [16] = system: sedge, umbrella (small-flower umbrella sedge, Cyperus difformis); assay: as above; settings: 250 g ai/ha, Flood, applied to paddy water, evaluated after 13 days
# Outline: as §2
# kochia (Bassia scoparia) [17] = assay: Test A preemergence soil spray, visual injury rating 0-100; settings: 10 days, 0 = no effect, 100 = complete control
# Outline: as §1
# [18] = system: ryegrass, Italian (italian ryegrass, Lolium multiflorum); assay: as above; settings: 10 days, 0 = no effect, 100 = complete control
# Outline: as §1
# [19] = system: ragweed (common ragweed, Ambrosia artemisiifolia); assay: as above; settings: 10 days, 0 = no effect, 100 = complete control
# Outline: as §1
# [20] = system: wheat (Triticum aestivum); assay: as above; settings: 10 days, 0 = no effect, 100 = complete control
# Outline: as §1
# [21] = system: palmer (palmer amaranth, palmer pigweed, Amaranthus palmeri); assay: as above; settings: 10 days, 0 = no effect, 100 = complete control
# Outline: as §1
# [22] = system: blackgrass (Alopecurus myosuroides); assay: as above; settings: 10 days, 0 = no effect, 100 = complete control
# Outline: as §1
# soybean (Glycine max) [23] = assay: as above; settings: 10 days, 0 = no effect, 100 = complete control
# Outline: as §1
# [24] = system: barnyardgrass (Echinochloa crus-galli); assay: as above; settings: 10 days, 0 = no effect, 100 = complete control
# Outline: as §1
# [25] = system: green foxtail (Setaria viridis); assay: as above; settings: 10 days, 0 = no effect, 100 = complete control
# Outline: as §1
# corn (Zea mays) [26] = assay: as above; settings: 10 days, 0 = no effect, 100 = complete control
# Outline: as §1
# [27] = system: oat, wild (wild oat, Avena fatua); assay: as above; settings: 10 days, 0 = no effect, 100 = complete control
# Outline: as §1
# [28] = 31 g ai/ha, postemergence, 0 = no effect, 100 = complete control
# [29] = Postemergence, 125 g ai/ha, 0 is no effect, 100 is complete control
compound,measurement,setting,value
CC(C)COC(=O)C1C=CC(NC(=O)C2(C)CN(c3cc(F)cc(F)c3)C(=O)O2)C1 (stereo not shown) [Compound 56],Kochia plant response rating (0-100),kochia (Bassia scoparia) [1]; [28],70
same,Kochia plant response rating (0 to 100 scale),kochia (Bassia scoparia) [1]; [29],80
same,"Ryegrass, Italian plant response rating (0-100)",[2]; [28],90
same,"Ryegrass, Italian plant response rating (0 to 100 scale)",[2]; [29],90
same,Galium plant response rating (0-100),[3]; [28],80
same,Galium plant response rating (0 to 100 scale),[3]; [29],80
same,Horseweed plant response rating (0-100),[4]; [28],20
same,Horseweed plant response rating (0 to 100 scale),[4]; [29],80
same,Ragweed plant response rating (0-100),[5]; [28],50
same,Ragweed plant response rating (0 to 100 scale),[5]; [29],70
same,Wheat plant response rating (0-100),[6]; [28],90
same,Wheat plant response rating (0 to 100 scale),[6]; [29],90
same,"Amaranth, Palmer plant response rating (0-100)",[7]; [28],90
same,"Amaranth, Palmer / Pigweed, Palmer plant response rating (0 to 100 scale)",[7]; [29],80
same,Blackgrass plant response rating (0-100),[8]; [28],60
same,Blackgrass plant response rating (0 to 100 scale),[8]; [29],90
same,Soybean plant response rating (0-100),soybean (Glycine max) [9]; [28],70
same,Soybean plant response rating (0 to 100 scale),soybean (Glycine max) [9]; [29],70
same,Barnyardgrass plant response rating (0-100),[10]; [28],90
same,Barnyardgrass plant response rating (0 to 100 scale),[10]; [29],100
same,"Foxtail, Green plant response rating (0-100)",[11]; [28],30
same,"Foxtail, Green plant response rating (0 to 100 scale)",[11]; [29],90
same,Corn plant response rating (0-100),corn (Zea mays) [12]; [28],90
same,Corn plant response rating (0 to 100 scale),corn (Zea mays) [12]; [29],100
same,"Oat, Wild plant response rating (0-100)",[13]; [28],90
same,"Oat, Wild plant response rating (0 to 100 scale)",[13]; [29],90
same,"Plant response rating, Rice (0 to 100 scale, 0 is no effect and 100 is complete control)",rice (Oryza sativa),15
same,"Plant response rating, Barnyardgrass (0 to 100 scale, 0 is no effect and 100 is complete control)",[14],95
same,"Plant response rating, Ducksalad (0 to 100 scale, 0 is no effect and 100 is complete control)",[15],90
same,"Plant response rating, Sedge, Umbrella (0 to 100 scale, 0 is no effect and 100 is complete control)",[16],50
same,Kochia plant response rating (0-100),kochia (Bassia scoparia) [17]; 31 g ai/ha,0
same,Kochia plant response rating (0 to 100 scale),kochia (Bassia scoparia) [17]; 125 g ai/ha,90
same,"Ryegrass, Italian plant response rating (0-100)",[18]; 31 g ai/ha,80
same,"Ryegrass, Italian plant response rating (0 to 100 scale)",[18]; 125 g ai/ha,90
same,Ragweed plant response rating (0-100),[19]; 31 g ai/ha,0
same,Ragweed plant response rating (0 to 100 scale),[19]; 125 g ai/ha,0
same,Wheat plant response rating (0-100),[20]; 31 g ai/ha,90
same,Wheat plant response rating (0 to 100 scale),[20]; 125 g ai/ha,100
same,"Amaranth, Palmer plant response rating (0-100)",[21]; 31 g ai/ha,0
same,"Amaranth, Palmer plant response rating (0 to 100 scale)",[21]; 125 g ai/ha,70
same,Blackgrass plant response rating (0-100),[22]; 31 g ai/ha,30
same,Blackgrass plant response rating (0 to 100 scale),[22]; 125 g ai/ha,90
same,Soybean plant response rating (0-100),soybean (Glycine max) [23]; 31 g ai/ha,30
same,Soybean plant response rating (0 to 100 scale),soybean (Glycine max) [23]; 125 g ai/ha,80
same,Barnyardgrass plant response rating (0-100),[24]; 31 g ai/ha,30
same,Barnyardgrass plant response rating (0 to 100 scale),[24]; 125 g ai/ha,100
same,"Foxtail, Green plant response rating (0-100)",[25]; 31 g ai/ha,40
same,"Foxtail, Green plant response rating (0 to 100 scale)",[25]; 125 g ai/ha,90
same,Corn plant response rating (0-100),corn (Zea mays) [26]; 31 g ai/ha,10
same,Corn plant response rating (0 to 100 scale),corn (Zea mays) [26]; 125 g ai/ha,90
same,"Oat, Wild plant response rating (0-100)",[27]; 31 g ai/ha,90
same,"Oat, Wild plant response rating (0 to 100 scale)",[27]; 125 g ai/ha,90
